Experimental data reported in ChEMBL document CHEMBL1144088, “Potential antipsoriatic agents: lapacho compounds as potent inhibitors of HaCaT cell growth” (J Nat Prod, 1999).
pIC50: −log10 of the molar value.

What was measured:
HaCaT [1] = test: Antiproliferative activity against human HaCaT cells; format: cell-based
HaCaT [2] = test: Cytotoxicity against human HaCaT cells assessed as LDH release at 2 uM; format: cell-based

Row | Compound | pIC50 (HaCaT [1]) | Activity (HaCaT [2])
1 | C=C(C)C1CC2=C(O1)C(=O)c1ccccc1C2=O (stereo not drawn) [DEHYDROISO-ALPHA-LAPACHONE] | 5.37 | 
2 | CC1(C)C=CC2=C(O1)C(=O)c1ccccc1C2=O [DEHYDRO-ALPHA-LAPACHONE] | < 5.00 | 
3 | CCc1cc2c(o1)-c1cccc(O)c1C(=O)C2=O | 6.05 | 235 mU
4 | O=C1C=C(O)c2cccc(O)c2C1=O | < 5.00 | 
5 | CC1(C)CCC2=C(O1)c1ccccc1C(=O)C2=O [LAPACHONE] | 6.15 | 329 mU
6 | O=C1c2c(O)cccc2Cc2cccc(O)c21 [ANTHRALIN] |  | 294 mU
7 | CC/C=C/C1=C(O)C(=O)c2c(O)cccc2C1=O | < 5.00 | 
8 | CC(O)c1cc2c(o1)C(=O)c1ccccc1C2=O (configuration not stated) | 5.43 | 
9 | CC1(C)CCC2=C(O1)C(=O)c1ccccc1C2=O [ALPHA-LAPACHONE] | 5.00 | 
10 | CC(C)=CCC1=C(O)C(=O)c2ccccc2C1=O [LAPACHOL] | < 5.00 | 
11 | CC(=O)c1cc2c(o1)C(=O)c1ccccc1C2=O [NAPABUCASIN] | 6.30 | 331 mU
12 | CC(=O)c1cc2c(o1)C(=O)c1c(O)cccc1C2=O | 6.52 | 346 mU
13 | CCc1cc2c(o1)C(=O)c1c(O)cccc1C2=O | 5.52 | 
